Assays:
Format in all cases: binding, Helicobacter pylori
[1] = test system: CCUG 17875 and the babA1A2 double mutant; assay: H. pylori adherence to immobilized neoglycoconjugates in ELISA; settings: strain not specified (CCUG 17875 and babA1A2 double mutant tested)
Experimental: CCUG 17875 (75) and the babA1A2 double mutant (DM) were added to the ELISA in a series labelled A-F. Adherent bacteria were detected by polyclonal rabbit antisera against H. pylori CCUG 17875. The products of the horseradish peroxidase reaction were quantified in a microtiter plate reader.
Sialyl-Lewis a-PAA, sialyl-Lewis x-PAA, 3'-HSO3-Lewis a-PAA, and 3'-HSO3-Lewis x-PAA, i.e. synthesised sialylated or sulphated Lewis antigens conjugated to polyacrylamide backbone were obtained from Syntesome GmbH, Munchen, Germany. The conjugates were added in dilution series of 1µg, 100ng, and 10 ng, in 90µl 1% BSA PBS 0.05% Tween, to streptavidin coated microtiter (ELISA) plates (Roche Diagnostics Scandinavia AB, Bromma, Sweden). After one hour of incubation in room temperature, the plate was blocked over night at 4°C, with 500ng biotinylated albumin in 300µl 1% BSA PBS 0.005% Tween. […] Adherent bacteria were detected by polyclonal rabbit antisera at a dilution of 1:3000, raised against formalin fixed bacteria of strain CCUG 17875 in New Zealand rabbits (Agrisera AB, Vännäsby, Sweden) The antibodies were allowed to incubate in 1% BSA in PBS 0.05% Tween for 30 minutes at room temperature. […] The products of the horseradish peroxidase reaction were quantified in a microtiter plate reader at 490 nm.

H. pylori strains = assay: radio immuno analysis (RIA) with 125I-labelled neoglycoconjugates; settings: strains of Fig. 4 (BabA2 mutant, babA1A2 mutant, CCUG 17875, CCUG 17874), 400 ng conjugate, 30 min
Experimental: Bars, from the left to the right; The sialyl-alfa2.61actose-, sialyl-alfa2.31actose-, sialyl-Lewis a-, sialyl-Lewis x-, and Lewis b-, synthesised sialyl-Lewis x- sialyl-acetyllactosaminee, both with a either a 3 carbon or 14 carbon (extended/hydrophilic) spacer, conjugated to albumin, Finally, the histo-blood group antigen Lewis y (synthesised penta-saccharide) (V. Behar and S.J. Danishefsky, Angew. Chem. Int. Ed. Engi, 1994, 33, no. 14, 1468.), was analysed as a neo-glycoconjugate.
The sialyl-alfa2.3lactose-, sialyl-alfa2.61actose-, sialyl-Lewis a-, and Lewis b-oligosaccharide antigens used for neoglycoconjugate preparations were purified by HPLC, structurally identified and characterized with NMR-spectroscopy, and more than 95% pure. These conjugates were attached to albumin with an APD (acetylphenylenediamine) spacer attached to the carbohydrate by reductive animation and thus the terminal reducing monosaccharide unit of the oligosaccharide is reduced and is present as an aminoalditol, IsoSep AB, Tullinge, Sweden (T. Borén, P. Falk, K. A. Roth, G. Larson, and S. Normark, Science. 262, 1892 (1993), P. D. Rye, Nature Biotechnology 2, 155 (1996)). The synthesised sialyl-Lewis x- tetrasaccharide antigen was conjugated to albumin with the MPE (mercaptopropionyl-amidoethyl) -spacer, IsoSep AB. Synthesised sialyl-Lewis x-tetrasaccharide and sialyl-acetyllactosaminee, both with a either a 3 carbon or 14 carbon (extended/hydrophilic) spacer, conjugated to albumin, were obtained from Dextra Laboratories, Reading, UK. The RIA (Fig. 4) was performed according to (P. Falk, T. Borén, D. Haslam, M. G. Caparon, Meth. Cell Biol. 45, 161 (1994)) with minor modifications; the glycoconjugates were ^125I-labelled by the Chloramine T method. 1 ml of bacteria (A600= OD 0.10) was incubated with 400 ng of ^125I-labelled conjugate (that is an excess of receptor substrate) for 30 min. in phosphate buffered saline (PBS), 0.5 % albumin, 0.05 % Tween-20 (BB-buffer). After centrifugation, the ^125I-activity bound to the bacterial pellet was measured by gamma scintillation counting. Binding experiments were reproducible and performed in triplets. In addition, the level of binding-activity within the strain was stabile.

[2] = test system: 91 Swedish clinical H. pylori isolates; settings: out of 91 clinical isolates
Experimental: Bacteria were grown at 37°C in 10 % CO2 and 5% O2 (T. Borén, P. Falk, K. A. Roth, G. Larson, and S. Normark, Science.. 262, 1892(1993), for 2 days for optimal Le b antigen binding activity.

Row | Molecule | binding to immobilised antigen in ELISA (in words) [1] | binding of 125I-labelled neoglycoconjugate (in words) (H. pylori strains) | binding of 125I-labelled neoglycoconjugate (in words) (H. pylori strains; listed as Lewis y pentasacharide antigen) | number of isolates that bound the neoglycoconjugate antigen [2]
1 | HSO3-3Galβ4GlcNAcβ3Galβ4Glc 3 Fucα1 [3'HSO3Lewis x] | no binding above background |  |  | 
2 | CC(=O)NC1C(OC2C(O)C(O)OC(CO)C2O)OC(CO)C(OC2OC(CO)C(O)C(O)C2OC2OC(C)C(O)C(O)C2O)C1OC1OC(C)C(O)C(O)C1O (centres unmarked) [Lewis y penta-saccharide antigen, Fucα2Galβ4GlcNAcβ3Gal 3 Fucα1] |  | did not demonstrate any binding activity | did not detect any binding activity | None
3 | HSO3-3Galβ3GlcNAcβ3Galβ4Glc 4 Fucα1 [3'HSO3Lewis a] | no binding above background |  |  | 

Reference: patent EP1169044B1, “USE OF FUCOSYLATED SIALYLATED N-ACETYL LACTOSAMINE CARBOHYDRATE STRUCTURES FOR INHIBITION OF BACTERIAL ADHERENCE” (Borén, Thomas, priority 1999, dated 2000)
